Measurements published in paper PMC3794971, “Functional and Genetic Characterization of Neuropeptide Y-Like Receptors in Aedes aegypti” (PLoS Neglected Tropical Diseases, 2013).
Square brackets hold non-standard residues; d marks the D form. Peptide text beside a SMILES is read from it. Hyp = O=C(O)[C@@H]1C[C@@H](O)CN1; pGlu = O=C1CC[C@@H](C(=O)O)N1

Assays:
Ae. aegypti NPYLR1 = biological target: T1, Ae. aegypti NPYLR1 (Aedes aegypti, UniProt U5N0U1); test: HEK293T cell-based calcium imaging assay, Ae. aegypti NPYLR1; conditions: for EC50: HEK293T cells transiently co-transfected with receptor and murine Gqα15, Fura-2 calcium imaging, eight responding cells per plate, three independent transfections, normalized to highest response
T1 sequence (U5N0U1 1-529): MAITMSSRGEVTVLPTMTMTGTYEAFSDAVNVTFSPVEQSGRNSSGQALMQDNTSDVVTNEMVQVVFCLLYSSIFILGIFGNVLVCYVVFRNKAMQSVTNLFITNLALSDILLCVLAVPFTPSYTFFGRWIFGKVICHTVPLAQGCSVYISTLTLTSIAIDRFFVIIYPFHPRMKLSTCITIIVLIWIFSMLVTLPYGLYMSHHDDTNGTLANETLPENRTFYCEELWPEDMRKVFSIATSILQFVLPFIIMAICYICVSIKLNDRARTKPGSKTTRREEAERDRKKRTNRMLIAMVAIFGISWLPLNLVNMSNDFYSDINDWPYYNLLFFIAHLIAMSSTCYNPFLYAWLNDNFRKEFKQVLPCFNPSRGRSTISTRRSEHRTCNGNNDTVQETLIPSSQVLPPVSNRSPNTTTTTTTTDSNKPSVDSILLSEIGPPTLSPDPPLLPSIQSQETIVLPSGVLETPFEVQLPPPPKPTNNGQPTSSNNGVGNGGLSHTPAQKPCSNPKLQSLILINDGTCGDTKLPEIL
Description: The variant alleles of NPYLR1 (alleles A–D) and NPYLR7 (alleles A–B) were tested in the cell-based assay as follows: NPYLR1A, NPYLR7A, and NPYLR7B were tested against the entire panel of peptides. NPYLR1B, NPYLR1C, and NPYLR1D were tested against Head Peptide-I and sNPF-3 only.

Ae. aegypti NPYLR7 = test: HEK293T cell-based calcium imaging assay, Ae. aegypti NPYLR7; set-up: species or system Aedes aegypti; conditions: HEK293T + murine Gqα15, Fura-2 calcium imaging; NPYLR7B allele responded, NPYLR7A did not
Description: (§2) HEK293T cells were cultured using standard protocols in a Thermo Scientific FORMA Series II – Water Jacketed CO2 incubator (Waltham, MA, USA). Lipofectamine 2000 (Invitrogen) was used for transient transfection of 1 µg pME18S>Candidate receptor and 1 µg pME18S>murine Gqα15 [14]. Transfected cells were loaded with the calcium sensitive dye Fura-2 (Invitrogen) according to product instructions. Cells were imaged on a Nikon Eclipse TE-2000-U microscope (Melville, NY, USA) using fluorescent excitation from a Lambda DG-4 (Sutter Instruments Co., Novato, CA, USA). Bath application of ∼300 µl solutions containing peptides diluted in Ringer's solution (0.14 M NaCl, 5.6 mM KCl, 5 mM HEPES, 2 mM pyruvic acid, 2 mM CaCl2, 2 mM MgCl2, 0.15% Glucose, 1.25 mM KH2PO4, pH 7.4) were delivered using a diaphragm pump (Gilson Minipuls3, Middleton, WI, USA) with real-time recording and analysis in Metafluor software (Version 7.1.2.0; Molecular Devices, Sunnyvale, CA, USA). Data from a complete peptide dilution series were collected from eight responding cells within each plate of three independent transfections. Data were normalized by setting the highest fluorescent response within each experiment to 100%.
NPYLR1B, NPYLR1C, and NPYLR1D were tested against Head Peptide-I and sNPF-3 only. […]

[1] = test system: Ae. aegypti female mosquitoes; test: Host-seeking behavior in uniport olfactometer after peptide injection; assay type: in vivo, Aedes aegypti; conditions: non-blood-fed females, 200 nl of 4 and 10 mM peptide injected into abdomen, tested after one hour; n = 6, ~20 females per trial
Description: The uniport olfactometer was custom built by Vadim Sherman in the Rockefeller University High Energy Physics Instrument Shop. Approximately 15-25 female mosquitoes aged 5 to 14 days were placed within loaders, which are small plastic cylinders with mesh covering both openings and a sliding door on one end obtained from the World Health Organization Vector Control Research Unit ([…], Malaysia). […] were attached to one end of a 1 m long plastic tube ([…]) that led to an “attraction trap” (14 cm long, 5 cm diameter), followed by a sealed chamber into which a human volunteer inserted a hand or forearm (see image in Figure 1A for the configuration with a hand stimulus). Humidified room air was carbon-filtered (Donaldson Ultrac-A, Bloomington, MN), supplemented to a final concentration of 5% CO2 using flow-meters (Cole Parmer, catalogue #023-92-ST, Vernon Hills, IL), and passed over the hand or forearm of the volunteer into the olfactometer at 3.8 L/min. Mosquito loaders were attached to the olfactometer and given 5 minutes to acclimatize to air-flow prior to a 5 minute host-seeking test. Mosquitoes were scored as attracted if they flew upwind through the 1 m tube and into the “attraction trap” within the allotted time. Solutions of Head Peptide-I, sNPF-3 and Head Peptide-I [[…]] were dissolved in saline (0.1M NaCl, 4 mM KCl, 2 mM CaCl2) at a concentration of 4 and 10 mM for injection. ∼20 female mosquitoes aged 5 to 14 days were anesthetized on ice for 3 min, moved individually onto a chill-plate (BioQuip catalogue #1429, Rancho Dominguez, CA, USA), and injected with 200 nl of desired solution using a Drummond Nanoject II (Drummond catalogue # 3-000-204, Broomall, PA, USA) attached to 3.5'' needles (Drummond, catalogue #3-000-203-G/X) shaped on a needle puller (Sutter Instruments Co., Model P-97). Solutions were injected into the abdomen by piercing the second abdominal […] from the ovipositor. Injected mosquitoes were placed in loaders and allowed one hour to recover from injection before being tested for host-seeking behavior in the uniport olfactometer.

D.mel-sNPFR [2] = biological target: T2, D.mel-sNPFR (Drosophila melanogaster, UniProt Q9VW75); test: HEK293T cell-based calcium imaging assay, D.mel-sNPFR; conditions: HEK293T + murine Gqα15, Fura-2 calcium imaging
T2 sequence (Q9VW75 1-600): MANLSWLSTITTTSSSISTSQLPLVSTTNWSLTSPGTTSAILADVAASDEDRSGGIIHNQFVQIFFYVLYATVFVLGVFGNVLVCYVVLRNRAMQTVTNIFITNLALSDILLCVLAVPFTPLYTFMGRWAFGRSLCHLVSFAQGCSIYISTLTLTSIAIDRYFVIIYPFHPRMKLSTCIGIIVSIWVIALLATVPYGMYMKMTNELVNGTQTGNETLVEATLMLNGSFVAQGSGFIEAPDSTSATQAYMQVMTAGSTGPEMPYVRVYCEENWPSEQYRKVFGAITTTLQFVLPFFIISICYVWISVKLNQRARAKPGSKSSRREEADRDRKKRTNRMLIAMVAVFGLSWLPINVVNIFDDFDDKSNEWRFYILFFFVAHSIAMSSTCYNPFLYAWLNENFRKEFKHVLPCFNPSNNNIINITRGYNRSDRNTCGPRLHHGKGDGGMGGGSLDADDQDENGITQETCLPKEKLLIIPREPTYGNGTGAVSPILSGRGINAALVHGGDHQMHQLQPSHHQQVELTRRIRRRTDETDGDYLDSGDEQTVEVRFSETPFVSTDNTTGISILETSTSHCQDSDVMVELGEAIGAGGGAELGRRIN
Description: as §2
We also used human Neuropeptide Y (NPY) and Peptide YY (PYY) [23](Figure 2B). […]

[3] = test system: Ae. aegypti female mosquitoes; conditions: earlier report; cited from earlier work
Description: At least two mechanisms for host-seeking inhibition have been proposed. First, abdominal distension triggered by blood ingestion is communicated through the ventral nerve cord to inhibit host attraction for approximately 24 hours [7](Figure 1B). Second, a humoral substance discovered in hemolymph at 48 hours after a blood meal is capable of suppressing host-seeking behavior when injected into non-blood-fed females [4](Figure 1B).

A.gam-sNPFR = biological target: T3, A.gam-sNPFR (Anopheles gambiae, UniProt A0SIF2); conditions: earlier reports, not this paper's assay; cited from earlier work
T3 sequence (A0SIF2 1-575): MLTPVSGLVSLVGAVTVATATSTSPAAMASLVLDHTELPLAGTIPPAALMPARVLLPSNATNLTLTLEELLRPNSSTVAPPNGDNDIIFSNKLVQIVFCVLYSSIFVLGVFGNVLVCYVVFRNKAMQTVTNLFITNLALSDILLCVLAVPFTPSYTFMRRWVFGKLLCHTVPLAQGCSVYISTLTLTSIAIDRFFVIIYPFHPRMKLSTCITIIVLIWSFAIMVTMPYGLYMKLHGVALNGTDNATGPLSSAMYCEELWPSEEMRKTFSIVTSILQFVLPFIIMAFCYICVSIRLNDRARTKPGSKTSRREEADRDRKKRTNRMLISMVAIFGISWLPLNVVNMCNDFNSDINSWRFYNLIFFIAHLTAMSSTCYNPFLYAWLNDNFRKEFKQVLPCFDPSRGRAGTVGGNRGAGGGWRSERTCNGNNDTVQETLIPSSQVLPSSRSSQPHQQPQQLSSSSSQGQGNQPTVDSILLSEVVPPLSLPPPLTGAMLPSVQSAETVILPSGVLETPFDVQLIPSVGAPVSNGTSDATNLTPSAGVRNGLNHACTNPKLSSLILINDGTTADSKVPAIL
Description: (§1) Ae. aegypti NPYLR1 is homologous to the sNPF receptors (sNPFR) of D. melanogaster, [24] and An. gambiae. […] We have no explanation for these discrepancies, but note that since D ...

D.mel-sNPFR [4] = biological target: T2, D.mel-sNPFR; conditions: earlier reports, not this paper's assay; cited from earlier work
Description: as §1

Compound | EC50 (Ae. aegypti NPYLR1) [nM] | Host-seeking behavior (percent attraction to human host stimuli) after injection [1] | Host-seeking behavior activity of injected peptide [3] | also measured
CC(C)C[C@H](NC(=O)[C@H](CCCNC(=N)N)NC(=O)[C@H](CC(C)C)NC(=O)[C@H](CO)NC(=O)[C@@H]1CCCN1C(=O)[C@@H](N)CO)C(=O)N[C@@H](CCCNC(=N)N)C(=O)N[C@@H](Cc1ccccc1)C(N)=O [sNPF-1(4-11)] (H-SPSLRLRF-NH2) | 44 | – | – | –
CC(C)C[C@H](NC(=O)[C@H](CCCNC(=N)N)NC(=O)[C@H](CCC(N)=O)NC(=O)[C@H](CO)NC(=O)[C@@H]1CCCN1C(=O)[C@H](C)N)C(=O)N[C@@H](CCCNC(=N)N)C(=O)N[C@@H](Cc1c[nH]c2ccccc12)C(N)=O [sNPF-3] (H-APSQRLRW-NH2; N-terminus assumed) | 75 | inhibited host-seeking behavior | – | Sensitivity of NPYLR1 to sNPF-3 relative to Head Peptide-I (Ae. aegypti NPYLR1; cell-based assay): ten times more sensitive; EC50 (Ae. aegypti NPYLR7): 6000 nM
CC(C)C[C@H](NC(=O)[C@H](CCCNC(=N)N)NC(=O)[C@H](CC(C)C)NC(=O)[C@H](CCC(N)=O)NC(=O)[C@@H]1CCCN1C(=O)[C@H](C)N)C(=O)N[C@@H](CCCNC(=N)N)C(=O)N[C@@H](Cc1ccccc1)C(N)=O [sNPF-2+4] (H-APQLRLRF-NH2) | 35 | – | – | –
CC(C)C[C@H](NC(=O)[C@H](CO)NC(=O)[C@@H]1C[C@@H](O)CN1C(=O)[C@@H]1CCCN1C(=O)[C@H](CCCNC(=N)N)NC(=O)[C@@H]1CCC(=O)N1)C(=O)N[C@@H](CCCCN)C(=O)N[C@H](C(=O)N[C@@H](CCCNC(=N)N)C(=O)N[C@@H](Cc1ccccc1)C(N)=O)[C@@H](C)O [Head Peptide-I] ([pGlu]RP[Hyp]SLKTRF-NH2) | 823 | inhibition of host-seeking behavior | sufficient to inhibit host-seeking behavior | EC50 (D.mel-sNPFR [2]): 1000 nM
pERPhPSLKTRC [Head Peptide-I [Cys10]] | – | had no effect | inactive | Calcium response of NPYLR1 (Ae. aegypti NPYLR1; concentrations up to 50 µM, HEK293T + murine Gqα15, Fura-2): no response
CC(C)C[C@H](NC(=O)[C@H](CO)NC(=O)[C@@H]1CCCN1C(=O)[C@@H]1CCCN1C(=O)[C@H](CCCNC(=N)N)NC(=O)[C@@H]1CCC(=O)N1)C(=O)N[C@@H](CCCCN)C(=O)N[C@H](C(=O)N[C@@H](CCCNC(=N)N)C(=O)N[C@@H](Cc1ccccc1)C(N)=O)[C@@H](C)O [Head Peptide-III] ([pGlu]RPPSLKTRF-NH2) | 954 | – | behaviorally inactive | Sensitivity of An. gambiae sNPFR to Head Peptide-III (A.gam-sNPFR): lack sensitivity; Sensitivity of D. melanogaster sNPFR to Head Peptide-III (D.mel-sNPFR [4]): lack sensitivity
CC(C)C[C@H](NC(=O)[C@H](CCCNC(=N)N)NC(=O)[C@H](CC(C)C)NC(=O)[C@H](CO)NC(=O)[C@@H]1CCCN1C(=O)[C@H](CO)NC(=O)[C@H](CCCNC(=N)N)NC(=O)[C@@H](NC(=O)[C@H](C)NC(=O)[C@@H](N)CCCCN)C(C)C)C(=O)N[C@@H](CCCNC(=N)N)C(=O)N[C@@H](Cc1ccccc1)C(N)=O [sNPF-1] (H-KAVRSPSLRLRF-NH2; N-terminus assumed) | 55 | – | – | EC50 (Ae. aegypti NPYLR7): 634 nM
